Assay results from patent US6352958B1, “Cycloimido-substituted benzofused heterocyclic herbicides” (FMC Corporation, priority 1997, dated 2002).

Assays:
Type in all cases: in vivo
[1] = tested on: wheat (Triticum aestivum var. Lew); assay: Preemergence herbicidal activity, wheat; details: Rate of Application 0.3 Kg/Ha, examined after 12-17 days
[2] = tested on: soybean (Glycine max var. Winchester); assay: Preemergence herbicidal activity, soybean; details: Rate of Application 0.3 Kg/Ha, examined after 12-17 days
[3] = tested on: green foxtail (Setaria viridis); assay: Postemergence herbicidal activity, green foxtail; details: rate of application 0.3 Kg/Ha, rated after 12-17 days
[4] = tested on: Johnsongrass (Sorghum halepense); assay: Postemergence herbicidal activity, johnsongrass; details: rate of application 0.3 Kg/Ha, rated after 12-17 days
[5] = tested on: morningglory (Ipomea lacunosa or Ipomea hederacea); assay: Preemergence herbicidal activity, morningglory; details: Rate of Application 0.3 Kg/Ha, examined after 12-17 days
[6] = tested on: common cocklebur (Xanthium strumarium L.); assay: Preemergence herbicidal activity, cocklebur; details: Rate of Application 0.3 Kg/Ha, examined after 12-17 days
[7] = tested on: velvetleaf (Abutilon theophrasti); assay: Postemergence herbicidal activity, velvetleaf; details: rate of application 0.3 Kg/Ha, rated after 12-17 days
[8] = tested on: common cocklebur (Xanthium strumarium L.); assay: Postemergence herbicidal activity, cocklebur; details: rate of application 0.3 Kg/Ha, rated after 12-17 days
[9] = tested on: green foxtail (Setaria viridis); assay: Preemergence herbicidal activity, green foxtail; details: Rate of Application 0.3 Kg/Ha, examined after 12-17 days
[10] = tested on: field corn (Zea mays var. Pioneer 3732); assay: Postemergence herbicidal activity, corn; details: rate of application 0.3 Kg/Ha, rated after 12-17 days
[11] = tested on: soybean (Glycine max var. Winchester); assay: Postemergence herbicidal activity, soybean; details: rate of application 0.3 Kg/Ha, rated after 12-17 days
[12] = tested on: Johnsongrass (Sorghum halepense); assay: Preemergence herbicidal activity, johnsongrass; details: Rate of Application 0.3 Kg/Ha, examined after 12-17 days
[13] = tested on: common chickweed (Stellaria media); assay: Postemergence herbicidal activity, chickweed; details: rate of application 0.3 Kg/Ha, rated after 12-17 days
[14] = tested on: velvetleaf (Abutilon theophrasti); assay: Preemergence herbicidal activity, velvetleaf; details: Rate of Application 0.3 Kg/Ha, examined after 12-17 days
[15] = tested on: wheat (Triticum aestivum var. Lew); assay: Postemergence herbicidal activity, wheat; details: rate of application 0.3 Kg/Ha, rated after 12-17 days
[16] = tested on: morningglory (Ipomea lacunosa or Ipomea hederacea); assay: Postemergence herbicidal activity, morningglory; details: rate of application 0.3 Kg/Ha, rated after 12-17 days
[17] = tested on: field corn (Zea mays var. Pioneer 3732); assay: Preemergence herbicidal activity, corn; details: Rate of Application 0.3 Kg/Ha, examined after 12-17 days
[18] = tested on: blackgrass (Aloepecurus myosuroides); assay: Postemergence herbicidal activity, blackgrass; details: rate of application 0.3 Kg/Ha, rated after 12-17 days
[19] = tested on: blackgrass (Aloepecurus myosuroides); assay: Preemergence herbicidal activity, blackgrass; details: Rate of Application 0.3 Kg/Ha, examined after 12-17 days
[20] = tested on: common chickweed (Stellaria media); assay: Preemergence herbicidal activity, chickweed; details: Rate of Application 0.3 Kg/Ha, examined after 12-17 days

| SMILES | PREEMERGENCE HERBICIDAL ACTIVITY (% CONTROL) WHT [1] [%] | PREEMERGENCE HERBICIDAL ACTIVITY (% CONTROL) SOY [2] [%] | Postemergence herbicidal activity (% control) SETVI [3] [%] | Postemergence herbicidal activity (% control) SORHA [4] [%] | PREEMERGENCE HERBICIDAL ACTIVITY (% CONTROL) IPOSS [5] [%] | PREEMERGENCE HERBICIDAL ACTIVITY (% CONTROL) XANPE [6] [%] | Postemergence herbicidal activity (% control) ABUTH [7] [%] | Postemergence herbicidal activity (% control) XANPE [8] [%] | PREEMERGENCE HERBICIDAL ACTIVITY (% CONTROL) SETVI [9] [%] | Postemergence herbicidal activity (% control) CRN [10] [%] | Postemergence herbicidal activity (% control) SOY [11] [%] | PREEMERGENCE HERBICIDAL ACTIVITY (% CONTROL) SORHA [12] [%] | Postemergence herbicidal activity (% control) STEME [13] [%] | PREEMERGENCE HERBICIDAL ACTIVITY (% CONTROL) ABUTH [14] [%] | Postemergence herbicidal activity (% control) WHT [15] [%] | Postemergence herbicidal activity (% control) IPOSS [16] [%] | PREEMERGENCE HERBICIDAL ACTIVITY (% CONTROL) CRN [17] [%] | Postemergence herbicidal activity (% control) ALOMY [18] [%] | PREEMERGENCE HERBICIDAL ACTIVITY (% CONTROL) ALOMY [19] [%] | PREEMERGENCE HERBICIDAL ACTIVITY (% CONTROL) STEME [20] [%] |
| --- | --- | --- | --- | --- | --- | --- | --- | --- | --- | --- | --- | --- | --- | --- | --- | --- | --- | --- | --- | --- |
| CCCc1nc2c(-n3c(=O)cc(C(F)(F)F)n(C)c3=O)c(F)cc(Cl)c2o1 [Compound 26] | 90 | 100 | 100 | 80 | 100 | 100 | 100 | 100 | 100 | 80 | 96 | 100 | 80 | 100 | 60 | 100 | 90 | 80 | 95 | 100 |
| CNC(=O)OCCc1cc2c(Cl)cc(F)c(-n3c(=O)cc(C(F)(F)F)n(C)c3=O)c2o1 [Compound 261] | 80 | 100 | 100 | 100 | 100 | 90 | 100 | 100 | 100 | 100 | 95 | 100 | 100 | 100 | 80 | 100 | 95 | 100 | 80 | 100 |
| Cn1c(C(F)(F)F)cc(=O)n(-c2c(F)cc(Br)c3oc(NS(C)(=O)=O)nc23)c1=O [Compound 108] | 0 | 0 | 70 | 20 | 50 | 10 | 20 | 10 | 50 | 60 | 50 | 30 | 0 | 70 | 20 | 60 | 10 | 10 | 50 | 40 |
| Cn1c(C(F)(F)F)cc(=O)n(-c2c(F)cc(Cl)c3c2nc(C(F)(F)F)n3C)c1=O [Compound 399] | 80 | 95 | 70 | 60 | 95 | 70 | 100 | 100 | 100 | 70 | 95 | 0 | 100 | 100 | 30 | 100 | 95 | 50 | 60 | 100 |
| Cn1c(C(F)(F)F)cc(=O)n(-c2c(F)cc(Br)c3oc(N)nc23)c1=O [Compound 98] | 40 | 50 | 40 | 20 | 75 | 60 | 60 | 20 | 30 | 50 | 40 | 65 | 5 | 80 | 10 | 20 | 80 | 5 | 10 | 70 |
| Cn1c(C(F)(F)F)cc(=O)n(-c2c(F)cc(Cl)c3nc(-c4ccccc4)[nH]c23)c1=O [Compound 375] | 30 | 80 | 80 | 100 | 80 | 80 | 100 | 100 | 100 | 90 | 95 | 95 | 100 | 100 | 40 | 95 | 90 | 90 | 80 | 95 |
| CCc1nc2c(-n3c(=O)cc(C(F)(F)F)n(C)c3=O)c(F)cc(Cl)c2o1 [Compound 25] | 100 | 100 | 100 | 90 | 100 | 95 | 100 | 100 | 100 | 90 | 100 | 100 | 100 | 100 | 80 | 100 | 100 | 80 | 90 | 100 |
| Cn1c(C(F)(F)F)cc(=O)n(-c2c(F)cc(Cl)c3cc(CCCl)oc23)c1=O [Compound 236] | 70 | 100 | 100 | 100 | 100 | 100 | 100 | 100 | 100 | 90 | 100 | 100 | 100 | 100 | 75 | 100 | 95 | 80 | 80 | 100 |
